Measurements taken from PubChem BioAssay AID977628 (Broad Institute, 2014).
Inconclusive results are not listed. Active and inactive are the calls of the source.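 Rule for the calls: active = compound lowering the normal-ribosome reporter at least twice as much as the humanized-ribosome reporter, growth loss under a set limit; inconclusive = no clear call, values can overlap the other calls; inactive = the rest.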

Assays:
[1] = tested on: E. coli WT GFP strain growth, fluorescence, 24 h; assay: E. coli growth inhibition, wild-type GFP versus h24 humanized RFP strain, dose response, h24 mutant RFP vs wild-type GFP, cherry-pick (AID 977628)
[2] = tested on: E. coli mixed WT/h24 culture total growth, OD600, 24 h; assay: as above

Row | Compound | AC50 [1] | AC50 [2] [µM]
1 | Cc1onc(-c2ccccc2Cl)c1C(=O)N[C@@H](C)c1ccccc1 | > 100 µM (inactive) | > 100
2 | COc1ccc(OC)c(-c2csc(NC(=O)C3COc4ccccc4O3)n2)c1 (configuration not stated) | > 100 µM (inactive) | > 100
3 | CCN(CC)CC(=O)Nc1ccc(-c2ccc(NC(=O)CN(CC)CC)c(OC)c2)cc1OC | > 100 µM (inactive) | > 100
4 | Cc1cc(C(=O)COC(=O)c2ccc(Br)o2)c(C)n1C | > 100 µM (inactive) | 42.5
5 | COc1ccc(OC)c(C(=O)COC(=O)c2ccc([N+](=O)[O-])o2)c1 | > 100 µM (inactive) | > 100
6 | COc1ccc(N(C)S(=O)(=O)c2cccc(C(=O)NC3CCCCC3C)c2)cc1 (configuration not stated) | > 100 µM (inactive) | 47.7
7 | Cc1nnn(C23CC4CC(CC(CC(=O)Nc5ccc(C)c(C)c5)(C4)C2)C3)n1 | > 100 µM (inactive) | > 100
8 | Fc1ccc(-n2cc(CNCCc3cccnc3)c(-c3ccccc3Cl)n2)cc1 | > 100 µM (inactive) | 49.2
9 | Cc1ccc(Oc2ccc(S(=O)(=O)N3CCOCC3)cc2C(N)=O)cc1C | > 100 µM (inactive) | > 100
10 | CCn1cc(Cl)c(C(=O)Nc2cccc(C(F)(F)F)c2)n1 | > 100 µM (inactive) | > 100
11 | CCCNC(=O)c1noc2c1CCc1cc(OC)ccc1-2 | > 100 µM (inactive) | 34.8
12 | CC1CCN(c2ccc3nnc(CCC(=O)Nc4cccc(F)c4)n3n2)CC1 | > 100 µM (inactive) | > 100
13 | CN(CCOc1ccccc1)C(=O)c1ccc(OC2CCN(C(=O)C3CC3)CC2)cc1 | > 100 µM (inactive) | > 100
14 | O=C(COc1ccc(Cl)cc1)Nc1ncc([N+](=O)[O-])s1 | > 100 µM (inactive) | 40.2
15 | O=C(Nc1ccc(F)cc1)N1CCCCN2[C@@H](CO)[C@H](c3ccc(-c4ccncc4)cc3)[C@@H]2C1 | > 100 µM (inactive) | > 100
16 | COc1ccc(S(=O)(=O)Cc2ccc(C(=O)N3CCN(c4cc(Cl)ccc4C)CC3)o2)cc1 | > 100 µM (inactive) | 49.9
17 | COC(=O)C(Cc1csc2ccc(Cl)cc12)NC(=O)c1ccc(Cl)cc1 (configuration not stated) | > 100 µM (inactive) | 31
18 | CN(C)C(=O)C1C2NC(=S)N(c3cccc(Cl)c3)C1(C)Oc1ccc(Cl)cc12 (configuration not stated) | > 100 µM (inactive) | > 100
19 | COc1ccc(C(=O)Cn2nnc(-c3ccccc3F)n2)cc1 | > 100 µM (inactive) | 48.8
20 | Cc1nc([N+](=O)[O-])c(Br)n1CC(=O)c1ccc(F)cc1 | > 100 µM (inactive) | > 100
21 | COc1ccc(NC(=O)CCC(=O)c2cccs2)cc1S(=O)(=O)Nc1ccc(Cl)cc1 | > 100 µM (inactive) | > 100
22 | O=C(c1ccc(-c2ccccc2)c(F)c1)C1CCCN(CCCn2cccn2)C1 (configuration not stated) | > 100 µM (inactive) | > 100
23 | CN1C(=O)c2cccc3c(S(=O)(=O)NCCc4ccccc4)ccc1c23 | > 100 µM (inactive) | > 100
24 | CC(=O)Nc1ccc(S(=O)(=O)Nc2cccc(-c3nc4cc(C)ccc4o3)c2)cc1 | > 100 µM (inactive) | > 100
25 | O=C(Cc1cccc(NC(=O)C2CCCN(C(=O)CCc3ccccc3)C2)c1)Nc1cccc(C(=O)N2CCCC2)c1 (configuration not stated) | > 100 µM (inactive) | > 100
26 | O=C(COC(=O)C12CC3CC(CC(O)(C3)C1)C2)NCCc1ccc(Cl)cc1 | > 100 µM (inactive) | > 100

Row | Compound | AC50 [1] | AC50 [2] [µM]
27 | CCOc1ccc(OCCn2c(=S)[nH]c3c(N)ncnc32)cc1 | > 100 µM (inactive) | 47.8
28 | O=C(Cc1coc2cc(O)ccc12)N1CCN(S(=O)(=O)c2ccc(Br)cc2)CC1 | > 100 µM (inactive) | 50.5
29 | CCOc1ccc(NC(=O)CCc2nnc3ccc(N4CCC(C)CC4)nn23)cc1 | > 100 µM (inactive) | > 100
30 | CCCN(CC(=O)Nc1ccccc1C)C(=O)c1cccc(S(=O)(=O)N2CCc3ccccc3C2)c1 | > 100 µM (inactive) | 51.9
31 | O=C(CSCc1c(Cl)cccc1Cl)Nc1cccnc1 | > 100 µM (inactive) | > 100
32 | Cc1ccc(NC(=O)c2cccs2)cc1[N+](=O)[O-] | > 100 µM (inactive) | > 100
33 | COc1cccc(OCCNS(=O)(=O)c2ccccc2[N+](=O)[O-])c1 | > 100 µM (inactive) | > 100
34 | CN(C)Cc1nc2ccccc2c(=O)n1Cc1nc(-c2cccc([N+](=O)[O-])c2)cs1 | > 100 µM (inactive) | > 100
35 | Cn1c(SCC(=O)Nc2ccccc2-c2ccccc2)nnc1-c1ccco1 | > 100 µM (inactive) | > 100
36 | C=CCn1c(-c2cc3cccc(OC)c3o2)n[nH]c1=S | > 100 µM (inactive) | > 100
37 | CCN(CC(=O)Nc1cccc(C#N)c1)CC(=O)Nc1cccc(OC)c1 | > 100 µM (inactive) | > 100
38 | CCN(c1ccccc1)S(=O)(=O)c1ccc(Cl)c(C(=O)NCc2ccco2)c1 | > 100 µM (inactive) | 38.5
39 | Cc1nn(-c2ccccc2)c(C)c1NC(=O)COc1ccc2ccccc2c1 | > 100 µM (inactive) | 42.8
40 | COc1ccc(OC)c(NC(=O)COC(=O)C2CCN(C(=O)c3ccc(Cl)cc3)CC2)c1 | > 100 µM (inactive) | > 100
41 | CC(C)(C)c1cc(-c2n[nH]c(=S)n2-c2ccc(Cl)cc2)n[nH]1 | > 100 µM (inactive) | > 100
42 | C=CCn1c(-c2sc(-c3ccccc3)nc2C)n[nH]c1=S | > 100 µM (inactive) | > 100
43 | Cc1cccc(C)c1-n1nnnc1C1(C)CCC(=O)N1Cc1cccs1 (configuration not stated) | > 100 µM (inactive) | > 100
44 | CSc1c(-c2ccccn2)c(N)nn1C(=O)C1CC1 | > 100 µM (inactive) | > 100
45 | O=C(Nc1ccc2nc3n(c(=O)c2c1)CCCCC3)c1c(F)ccc([N+](=O)[O-])c1F | > 100 µM (inactive) | > 100
46 | COc1ccc(C(=O)COC(=O)c2ccccc2O)c(OC)c1 | > 100 µM (inactive) | 40
47 | CC(C)Cn1c(=O)c2ccccc2c2ccccc2c1=O | > 100 µM (inactive) | > 100
48 | CCOc1ccc(S(=O)(=O)Nc2ccc(S(=O)(=O)N3CCCC3)cc2)cc1 | > 100 µM (inactive) | 40.8
49 | C=CCn1c(CCSCc2ccc(OC)c(C)c2)n[nH]c1=S | > 100 µM (inactive) | 51.2
50 | Cc1cccc(OCCC(=O)Nc2ccc(F)c(F)c2)c1 | > 100 µM (inactive) | > 100
51 | Cc1c(C(=O)O)oc2ccc(S(=O)(=O)NC3CCCCCCC3)cc12 | > 100 µM (inactive) | 41.4
52 | CN(Cc1ccccc1)C(=O)c1[nH]cnc1C(=O)NCc1ccccc1 | > 100 µM (inactive) | > 100

Row | Compound | AC50 [1] | AC50 [2] [µM]
53 | COc1ccc(C(=O)Nc2ccc3nc(C)sc3c2)cc1OC | > 100 µM (inactive) | > 100
54 | CCN(CC)S(=O)(=O)c1ccc(O)c(C(=O)OCC(=O)NC23CC4CC(CC(C4)C2)C3)c1 | > 100 µM (inactive) | > 100
55 | Clc1cccc(OCc2nc(-c3ccncc3)n[nH]2)c1 | > 100 µM (inactive) | > 100
56 | COc1cc(OC)cc(C(=O)Nc2ccc(S(=O)(=O)Nc3cnc4ccccc4n3)cc2)c1 | > 100 µM (inactive) | 42.2
57 | O=C(Nc1cccc(Cl)c1)N1C[C@@H]2[C@H](c3ccccc31)[C@H](CO)N2Cc1ccncc1 | > 100 µM (inactive) | > 100
58 | Nc1[nH]c(C(=O)c2ccccc2)c(-c2ccc(Cl)cc2)c1C(=O)NCCc1c[nH]c2ccccc12 | > 100 µM (inactive) | > 100
59 | O=C(CSc1nc2ccccc2[nH]1)Nc1cccc(S(=O)(=O)N2CCOCC2)c1 | > 100 µM (inactive) | 47.9
60 | COC(=O)c1cc(C(=O)Cc2ccccc2)c[nH]1 | > 100 µM (inactive) | > 100
61 | NC(=O)c1ccsc1NC(=O)COC(=O)CCOc1ccccc1 | > 100 µM (inactive) | 46.3
62 | CC(C)Oc1cccc(C(=O)C2CCCN(Cc3ccc4nonc4c3)C2)c1 (configuration not stated) | > 100 µM (inactive) | 36.8
63 | COc1cc2c(cc1OC)CN(c1ccc([N+](=O)[O-])c(C(F)(F)F)c1)CC2 | > 100 µM (inactive) | > 100
64 | COC(=O)[C@@H](Cc1c[nH]c2ccccc12)NCc1cccc(B(O)O)c1 | > 100 µM (inactive) | > 100
65 | COc1ccc(OC)c(-c2nnc3n2N=C(c2ccc(OC)c(OC4CCOC4)c2)CS3)c1 (configuration not stated) | > 100 µM (inactive) | > 100
66 | O=C(Cn1c(CO)nc2ccccc21)NCCc1ccc(F)cc1 | > 100 µM (inactive) | > 100
67 | Cc1ccc(N(CC(O)Cn2nc(C)cc2C)S(=O)(=O)c2ccc3ccccc3c2)cc1 (configuration not stated) | > 100 µM (inactive) | 49.4
68 | CCn1c(CNC(=O)c2ccccc2F)cc2cc(C)ccc21 | > 100 µM (inactive) | > 100
69 | NC(=O)C1Cc2ccccc2CN1C(=O)c1cc(C2CC2)nn1-c1ccccc1 (configuration not stated) | > 100 µM (inactive) | 46.8
70 | Cc1nc2ccc(Br)cc2c(=O)n1Cc1cccs1 | > 100 µM (inactive) | 49.7
71 | CCCN(CC1CC1)C(=O)CSc1ncnc2sccc12 | > 100 µM (inactive) | > 100
72 | CCN(CC(=O)Nc1ccccc1OC)CC(=O)Nc1c(Cl)ccc(C)c1Cl | > 100 µM (inactive) | > 100
73 | COc1ccc(-c2ccccc2)cc1NC(=O)c1ccncc1 | > 100 µM (inactive) | > 100
74 | CCCNC(=O)c1cc(C2CCCN(S(=O)(=O)c3cccc4cccnc34)C2)on1 (configuration not stated) | > 100 µM (inactive) | > 100
75 | CCc1cc(C(=O)N2CCCC(C(=O)c3cccc4ccccc34)C2)n(C)n1 (configuration not stated) | > 100 µM (inactive) | > 100
76 | CN(C)C(=O)c1ccc(NC(=O)CSc2nc3ccccc3[nH]2)cc1 | > 100 µM (inactive) | > 100
